Experiments:
[1] = test system: STZ-HFD-induced T2D Wistar rats; test: Acute evaluation of blood glucose in STZ-HFD-induced T2D model; format: in vivo, rat; conditions: 8d 32 mg/Kg oral
Experimental: In vivo experiments were conducted in an acute and a subchronic model, where Wistar rats (180–220 g) were used. The study covered a total period of 10 weeks and was carried out under the Mexican Standard, and the “Guide for the Care and Use of Laboratory Animals” of the National Research Council and Health Institutes was followed.
At first, animals were housed in polypropylene cages under conditions of controlled temperature (20–25 °C), relative humidity (36–60%), and light/dark cycles, with water ad libitum. Before starting the experiment, they were given a one-week acclimatization period to adapt to their new habitat. Once finalized, animals were fed an HFD for 3 weeks to generate insulin resistance.
After this period, the animals fasted for 12 h and then were administered intraperitoneally with a single dose of 35 mg/Kg of STZ dissolved in a buffer of 0.1 M citrate, pH 4.5 (prepared on the same day of administration). […]
One week after administration, postprandial blood glucose levels were measured by venipuncture using a glucometer. […]
Once the experimental groups were formed, a fixed schedule was established for the daily oral administration of the respective treatments. […] On the third day of treatment, postprandial blood glucose was measured with a glucometer Freestyle® (Abbott Diabetes Care, Alameda, CA, USA), extracting a drop of blood from the caudal vein of each rat. […]

[2] = test system: STZ-HFD-induced T2D Wistar rats; test: Ex vivo serum total antioxidant capacity (Trolox equivalent); format: in vivo, rat
Experimental: (§1) At the end of the study, animals fasted for 12 h and were taken to a humane endpoint, where blood samples were obtained. These were kept at room temperature for 30 min and then centrifuged at 4000 RPM for 15 min at 4 °C. Finally, the serum was used to perform 24-element blood chemistry and quantify Trolox-equivalent TAC [86], TNF-α [87], and IL-6 levels using commercial kits from Merck (Darmstadt, Germany), Sigma-Aldrich (St. Louis, MO, USA), Cat. No. MAK334-1KT, RAB0479-1KT, and RAB0311-1KT, respectively. In addition, insulin was quantified using the Rat Ins1/Insulin ELISA Kit, from Sigma-Aldrich, No. Cat. RAB0904-1KT [89] to determine the HOMA-IR index. All kits were performed according to the manufacturer’s instructions without modifications.

ALR2 enzyme [3] = target: T1, ALR2 enzyme (Homo sapiens, UniProt P15121); test: ALR2 activity assay kit (ab273276), inhibition; format: biochemical; conditions: Inhibitor concentration;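 as to relative ALR2 inhibition: inhibition calculated from the rate of NADPH cofactor consumption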
T1 construct: purchased ab273276

male Wistar rat = test: Acute oral toxicity, Up and Down procedure (OECD 425); format: in vivo; set-up: Heart weight / IWA (initial weight of animals) / FWA (final weight of animals) / Spleen weight / Liver weight / Intestine weight / Stomach weight / Kidney weight: unit not given here
Experimental: All synthesized compounds (8c, 8d, and 12d as a racemic mixture) were suspended in 2% Tween 80 in water and administered orally by an esophageal cannula following the “Up and Down” methodology. Nevertheless, compounds could not be solubilized in the desired volume to complete the highest dose (1750 mg/Kg), so the toxicity test was performed with a maximum dose of 1250 mg/Kg. Even so, the values obtained indicate that these compounds are classified within toxicity category 4 according to the guidelines established by the Organization for Economic Co-operation and Development (OECD).
The “Up and Down” procedure of OECD Guideline 425 was used to estimate the LD50 value of synthesized compounds. Briefly, a dose of 175 mg/Kg was administered to a male Wistar rat, which was monitored continuously for 48 h. As the animal survived, a second animal received a dose of 550 mg/Kg, and, as it survived, a third animal received an increasing dose of 1750 mg/Kg. Finally, two other rats were administered the same dose. All animals were kept under observation for 14 days, and 24 h later, they were taken to the humane endpoint for macroscopic examination of organs and tissues. Finally, the LD50 value of the compounds was estimated to determine their degree of toxicity and classified based on the GHS of Classification and Labeling of Chemicals.

ABTS assay = test: ABTS assay
Experimental: All synthesized compounds were evaluated at 30 μM, 50 μM, 70 μM, 90 μM, and 110 μM under two of the most widely used methods in research to directly measure the antioxidant and anti-radical intrinsic capacity, FRAP, and ABTS assay, which were validated by a dose–response curve of 5-ASA as a reference. In the same way, these tests were carried out in triplicate using an assay kit (from Pharmaceutical and Biotechnological Innovation-Services) according to the manufacturer’s instructions.

TNF-α = test: Ex vivo serum TNF-α quantification; format: in vivo, rat
Experimental: as §1

ALR2 enzyme [4] = target: T1, ALR2 enzyme; test: ALR2 activity assay kit (ab273276), inhibition; format: biochemical
Experimental: The obtained dose–response curve had concentrations of 10 μM, 5 μM, 500 nM, 50 nM, and 5 nM.

[5] = Table S11, After 5 weeks of treatment
[6] = serum, end of treatment, mean ± SEM, n = 4
[7] = 1250 mg/Kg oral, necropsy, mean ± SEM

SMILES: COC(=O)[C@H](Cc1ccccc1)N/C(=N\c1nc2ccccc2s1)SC [8d, Methyl (E)-((benzo[d]thiazol-2-ylimino)(methylthio)methyl)-L-phenylalaninate]
- blood glucose after a single administration, without prior fasting [1]: ~ 200 mg/dL
- effect on total antioxidant capacity (TAC) [2]: did not improve TAC
- TAC Equivalent to Trolox [2, 5]: 79.26 ± 17.28 µM
- TAC Equivalent to Trolox [2, 6]: 79.26 ± 17.28 µM
- relative ALR2 inhibition (ALR2 enzyme [3]): 98.000%
- FWA (final weight of animals) (male Wistar rat; 1250 mg/Kg oral, after 14 days, mean ± SEM): 310.57 ± 11.6
- IWA (initial weight of animals) (male Wistar rat; 1250 mg/Kg oral, mean ± SEM): 201.0 ± 7.17
- Heart weight (male Wistar rat; [7]): 1.30 ± 0.03
- Intestine weight (male Wistar rat; [7]): 29.97 ± 0.72
- Kidney weight (male Wistar rat; [7]): 2.97 ± 0.03
- Liver weight (male Wistar rat; [7]): 17.57 ± 0.50
- Spleen weight (male Wistar rat; [7]): 0.67 ± 0.07
- Stomach weight (male Wistar rat; [7]): 1.70 ± 0.10
- toxicity category (OECD) (male Wistar rat; maximum dose 1250 mg/Kg oral): 4
- Percentage reduction of radical cation ABTS (ABTS assay; 30 µM): -4.0%
- Percentage reduction of radical cation ABTS (ABTS assay; 50 µM): -3.0%
- Percentage reduction of radical cation ABTS (ABTS assay; 70 µM): -4.2%
- Percentage reduction of radical cation ABTS (ABTS assay; 90 µM): -3.6%
- Percentage reduction of radical cation ABTS (ABTS assay; 110 µM): -2.5%
- TNF-α (TNF-α; [5]): 5417.72 ± 2104.18 pg/mL
- TNF-α (TNF-α; [6]): 5417.72 ± 2104.2 pg/mL
- concentrations at which ALR2 was inhibited (ALR2 enzyme [4]): below 10 µM
- concentration dependence of ALR2 inhibition (IC50 not calculable) (ALR2 enzyme [4]; 10 μM to 5 nM): did not show a concentration-dependent response
- relative ALR2 inhibition (ALR2 enzyme [4]; Inhibitor concentration 5 nm): 93.590%
- relative ALR2 inhibition (ALR2 enzyme [4]; Inhibitor concentration 50 nm): 91.644%
- relative ALR2 inhibition (ALR2 enzyme [4]; Inhibitor concentration 500 nm): 86.494%
- relative ALR2 inhibition (ALR2 enzyme [4]; Inhibitor concentration 5000 nm): 80.389%
- relative ALR2 inhibition (ALR2 enzyme [4]; Inhibitor concentration 10000 nm): 89.966%

Source: paper PMC12388506, “Preclinical Evaluation of 2-Aminobenzothiazole Derivatives: In Silico, In Vitro, and Preliminary In Vivo Studies as Diabetic Treatments and Their Complications” (Molecules, 2025)
